Legend:
P. aeruginosa PAO1 = assay: Synergy assay with Piperacillin Tazobactam; type: cell-based, Pseudomonas aeruginosa; settings: PPMO 32 to 0.5 μM; 2 μg/mL PMBN; 18 hours at 37° C.
Procedure: (§1) A synergy assay was performed with Piperacillin Tazobactam and AcpP PPMO #35 in P. aeruginosa PAO1. 1×10^6 cfu/mL of PAO1 was inoculated into Mueller Hinton II media in an 96-well plate in the presence of 2 μs/mL PMBN. Piperacillin Tazobactam (PT) was serial diluted by half dilutions in the lateral direction from 128 to 0.124 μg/mL. AcpP PPMO #35 was vertically diluted in the same manner from 32 to 0.5 μM. The 96-well plate was then incubated for 18 hours at 37° C.
as §1, with “μg/mL” for “μs/mL”

[1] = test system: existing P. aeruginosa PAO1 biofilm; assay: Biofilm reduction in MBEC plate (crystal violet); type: cell-based, Pseudomonas aeruginosa; settings: at 10, 5, 2.5, and 1 μM; 2 μg/mL PMBN; 48 hour biofilm
Procedure: P. aeruginosa PAO1 (5×10^5 cfu/mL) was grown in an MBEC plate for 24 hours. At 24 hours, the pegs were moved to a new 96-well plate containing fresh MHII media and either scrambled, RpsJ, or AcpP PPMO at the indicated concentrations. All wells containing PPMOs (including Scrambled) contained 2 μg/mL of PMBN. The pegs were again moved to new plates with or without PPMOs at 32 and 40 hours. Pegs were processed for crystal violet or visualized with microscopy at 48 hours. […] FIGS. 7B-7D: Spinning Disk confocal microscopy images of 48 hour biofilm treated with (FIG. 7B) 10 μM Scr PPMO #42, (FIG. 7C) 2.5 μM AcpP PPMO #35, (FIG. 7D) 10 μM AcpP PPMO #35. Green channel is PAO1 GFP; Red channel is biofilm stained with 200 μg/mL of Concanavalin A, Alexafluor 647 conjugate.
Pseudomonas aeruginosa Biofilm Reduction in MBEC Plate Protocol
• 1. 10 mL of MH is inoculated with a single colony and incubated at 37° C. and ˜250 rpm for about 5 hours. • 2. The sample is centrifuged for 10 minutes at ˜4000 rpm at 4° C., the supernatant decanted and the pellet resuspended in 10 mL of 150 mM NaCl or PBS. This step is repeated to wash the pellet 3 times. • 3. […] The OD600 of the sample is taken and cfu/mL is calculated. […]
1. […] The final OD570 of the 10× dilution of solution should be approximately 0.500 absorbance. […]
2. OD reading: The OD570 for the 96-well plate from step 1e is determined. […]

PPMO #35: AcpP PMO CTCATACCTTG, 5′ (RXR)4XB CPP, 3′ H
MIC of Piperacillin Tazobactam in combination with PPMO (P. aeruginosa PAO1): decreasing MIC values as the PPMO concentration increased | reduction of existing biofilm (crystal violet) [1]: statistically significant reduction of biofilm

From US11293024B2, “Antisense antibacterial compounds and methods” (priority 2014, dated 2022)
